Data as given in patent US9540389B2, “Antimicrobial potentiators” (priority 2013, dated 2017).

Legend:
Escherichia coli AB1157 = test: MIC assay (microbroth dilution) ± 25 μM EPI; format: cell-based; details: for MICs (μg/ml) ± EPIs: PAβN: + 25 μM PAβN
From the text: (§1) • Strains and Reagents. The following strains were obtained from the Keio collection (Baba, et al.: Construction of Escherichia coli K-12 in-frame, single-gene knockout mutants: the Keio collection. In Mol Syst Biol, vol. 2, pp. 2006 0008, (2006)): JW0451 (ΔacrB::kan), JW5503 (ΔtolC::kan), JW3234 (ΔacrF::kan), JW2661 (ΔemrB::kan), JW0863 (ΔmacB::kan). The deletion mutations in each of these strains were transferred to AB1157 using P1 phage transduction (see Table 1). The construction of the E. coli cell-based reporter strain (SOS-XXX) that was used for high throughput screening is described in detail in the supplementary information. […] Irgasan was a generous gift from Ciba Speciality Chemicals, Inc. (High Point, N.C.). Hoechst 33342 (H33342) was purchased from Molecular Probes (Eugene, Oreg.). […] Luria Broth (Miller) and agar were purchased as prepared dehydrated media from Becton Dickenson (Franklin Lakes, N.J.). The compound libraries used in high-throughput screens were purchased from Chembridge (San Diego, Calif.), ChemDiv (San Diego, Calif.), and TimTec (Newark, Del.). MBX2319 was synthesized by Microbiotix, Inc. • Antibacterial Activity Assays. The minimal inhibitory concentration (MIC) of antibacterial agents and biocides were determined using the microbroth dilution method essentially as described in the CLSI protocol M7-A7 (CLSI: Method for dilution antimicrobial susceptibility testing for bacteria that grow aerobically; Approved standard-document M7-A7. In Clinical and Laboratory Standards Institute document M7-A7, Clinical and Laboratory Standards Institute, Wayne, Pa., (2006)), with the following exceptions. LB media was used instead of MHB. […] The final concentration of DMSO in each assay was 2%. […] MIC assays were performed in triplicate and the geometric mean was calculated. Checkerboard MIC assays using an EPI and an antibacterial agent were performed essentially as described (Pillai, et al.: Antimicrobial Combinations. In Antibiotics in Laboratory Medicine, ed. by V. Lorian, pp. 365-440, Lippincott Williams & Wilkins, Philadelphia, Pa., (2005)), with the same modifications used for the MIC assays described above. • Time-Kill Assays. Killing curve assays were performed essentially as described (Pillai, et al.: Antimicrobial Combinations. In Antibiotics in Laboratory Medicine, ed. by V. Lorian, pp. 365-440, Lippincott Williams & Wilkins, Philadelphia, Pa., (2005)). Exponential bacterial cultures grown in LB were diluted to a cell density of ˜1×10^7 in LB followed by addition of CIP and/or an EPI. Viability was monitored over 2-4 hours by making serial dilutions in saline and spotting 5 μl of each dilution onto the surface of an LB agar plate in triplicate. Colonies were counted after the plates were incubated at 37° C. for 16-18 hr, colony forming units (CFU) per ml were calculated, and the average and standard deviation for the three replicates was determined. For treatments that decreased CFU/ml below the limit of detection for the spot plating method, the 100 μl samples were diluted into 5 ml LB top agar, were poured onto LB agar plates, and incubated for 18 hr at 37° C. To calculate the fraction of the control for each sample, the average CFU/ml values for treated samples were divided by those from the same sample at 0 h (time=0). Each experiment was repeated at least three times, and a representative experiment is shown. • H33342 Accumulation Assay. The rate of accumulation of the fluorescent dye Hoechst 33342 (H33342), which is a substrate of a wide variety of bacterial efflux pumps (van den Berg van Saparoea, et al., Biochemistry, vol. 44, pp. 16931-16938, (2005)), can be used to estimate the activity of the major efflux pumps in E. coli and many other bacterial species. The H33342 accumulation assay was used to evaluate the effect of EPIs on the activity of the AcrAB-TolC efflux pump in several bacterial species essentially as described (Coldham, et al., J Antimicrob Chemother, vol. 65, pp. 1655-1663, (2010)). […]

Escherichia coli 331 = test: MIC assay (microbroth dilution) ± 25 μM EPI; format: cell-based; details: E. coli 331; for MIC (μg/ml) ± EPI: MBX2319: + 25 μM MBX2319; for MIC (μg/ml) ± EPI: PAβN: + 25 μM PAβN
From the text: as §1

[1] = system: Enterobacter aerogenes ATCC 13048; test: MIC assay (microbroth dilution) ± 25 μM EPI; format: cell-based; details: for MIC (μg/ml) ± EPI: MBX2319: + 25 μM MBX2319; for MIC (μg/ml) ± EPI: PAβN: + 25 μM PAβN; for MIC: Klebsiella aerogenes, ATCC13048, no EPI, read-out: MIC (μg/ml) ± EPI: None
From the text: as §1

[2] = system: Escherichia coli ATCC 25922; test: MIC assay (microbroth dilution) ± 25 μM EPI; format: cell-based; details: for MIC (μg/ml) ± EPI: MBX2319 / MIC (μg/ml) ± EPI: PAβN: E. coli ATCC 25922; for MIC (μg/ml) ± EPI: MBX2319: + 25 μM MBX2319; for MIC (μg/ml) ± EPI: PAβN: + 25 μM PAβN
From the text: as §1

[3] = system: Klebsiella pneumoniae ATCC 700603; test: MIC assay (microbroth dilution) ± 25 μM EPI; format: cell-based; details: for MIC (μg/ml) ± EPI: MBX2319: + 25 μM MBX2319; for MIC (μg/ml) ± EPI: PAβN: + 25 μM PAβN; for MIC: ATCC700603, no EPI, read-out: MIC (μg/ml) ± EPI: None
From the text: as §1

[4] = system: Shigella flexneri ATCC 12022; test: MIC assay (microbroth dilution) ± 25 μM EPI; format: cell-based; details: for MIC (μg/ml) ± EPI: PAβN: + 25 μM PAβN; for MIC: Shigella flexneri, ATCC12022, read-out: MIC (μg/ml) ± EPI: None
From the text: as §1

[5] = system: Salmonella enterica ATCC 14028; test: MIC assay (microbroth dilution) ± 25 μM EPI; format: cell-based; details: for MIC (μg/ml) ± EPI: MBX2319: + 25 μM MBX2319; for MIC (μg/ml) ± EPI: PAβN: + 25 μM PAβN; for MIC: ATCC14028, no EPI, read-out: MIC (μg/ml) ± EPI: None
From the text: as §1

[6] = system: Escherichia coli 285 (AB1157, CIPR, overexpresses efflux); test: microbe, parasite or virus in culture; format: cell-based
From the text: as §1

[7] = system: Escherichia coli 287 (AB1157, CIPR, overexpresses efflux); test: microbe, parasite or virus in culture; format: cell-based
From the text: as §1

P. aeruginosa ATCC 27853 = test: MIC assay (microbroth dilution) ± 25 μM EPI; format: cell-based, Pseudomonas aeruginosa; details: for MIC (μg/ml) ± EPI: PAβN: + 25 μM PAβN; for MIC: Pseudomonas aeruginosa, ATCC27853, no EPI, read-out: MIC (μg/ml) ± EPI: None
From the text: as §1

[8] = E. coli AB1157 (WT), geometric mean
[9] = Escherichia coli, read-out: MIC (μg/ml) with MBX2319 at concn (μM) of: 0

SMILES | MICs (μg/ml) ± EPIs: PAβN (Escherichia coli AB1157; [8]) [µg/mL] | MIC (μg/ml) ± EPI: MBX2319 (Escherichia coli 331) [µg/mL] | MIC (μg/ml) ± EPI: PAβN (Escherichia coli 331) [µg/mL] | MIC (μg/ml) ± EPI: MBX2319 [1] [µg/mL] | MIC (μg/ml) ± EPI: PAβN [1] [µg/mL] | MIC [1] [µg/mL] | MIC (μg/ml) ± EPI: MBX2319 [2] [µg/mL] | MIC (μg/ml) ± EPI: PAβN [2] [µg/mL] | MIC (μg/ml) ± EPI: MBX2319 [3] [µg/mL] | MIC (μg/ml) ± EPI: PAβN [3] [µg/mL] | MIC [3] [µg/mL] | MIC (μg/ml) ± EPI: PAβN ([4]; Shigella flexneri ATCC 12022) [µg/mL] | MIC [4] [µg/mL] | MIC (μg/ml) ± EPI: MBX2319 [5] [µg/mL] | MIC (μg/ml) ± EPI: PAβN [5] [µg/mL] | MIC [5] [µg/mL] | MIC (μg/ml) ± EPI: PAβN (P. aeruginosa ATCC 27853) [µg/mL] | MIC (P. aeruginosa ATCC 27853) [µg/mL] | other results
CO/N=C(\C(=O)N[C@@H]1C(=O)N2C(C(=O)O)=C(COC(C)=O)CS[C@H]12)c1csc(N)n1 [CEF, cefotaxime] | 0.25 | 0.031 | 0.353 | 2.4 | 6.7 | 2 | 0.063 | 0.25 | 8 | 8 | 8 | 0.063 | 0.063 | 0.063 | 0.297 | 0.21 | 19 | 53.8 | MICs (μg/ml) ± EPIs: MBX2319 (Escherichia coli AB1157; E. coli AB1157 (WT), + 25 μM MBX2319, geometric mean): 0.022 µg/mL; MIC (Escherichia coli AB1157; Escherichia coli, AB1157, read-out: MICs (μg/ml) ± EPIs: None): 0.1 µg/mL; MIC ([2]; Escherichia coli, ATCC25922, read-out: MIC (μg/ml) ± EPI: None): 0.074 µg/mL; MIC (μg/ml) ± EPI: MBX2319 ([4]; Shigella flexneri ATCC 12022, + 25 μM MBX2319): 0.031 µg/mL; MIC (μg/ml) with MBX2319 at concn (μM) of: 3.13 ([6]; 285, MBX2319 3.13 μM): 0.063 µg/mL; MIC (μg/ml) with MBX2319 at concn (μM) of: 6.25 ([6]; 285, MBX2319 6.25 μM): 0.063 µg/mL; MIC (μg/ml) with MBX2319 at concn (μM) of: 25 ([6]; 285, MBX2319 25 μM): 0.031 µg/mL; MIC (μg/ml) with MBX2319 at concn (μM) of: 50 ([6]; 285, MBX2319 50 μM): 0.031 µg/mL; MIC [6, 9]: 0.25 µg/mL; MIC (μg/ml) with MBX2319 at concn (μM) of: 6.25 ([7]; 287, MBX2319 6.25 μM): 0.063 µg/mL; MIC (μg/ml) with MBX2319 at concn (μM) of: 25 ([7]; 287, MBX2319 25 μM): 0.063 µg/mL; MIC (μg/ml) with MBX2319 at concn (μM) of: 50 ([7]; 287, MBX2319 50 μM): 0.063 µg/mL; MIC [7, 9]: 0.25 µg/mL; MIC (μg/ml) ± EPI: MBX2319 (P. aeruginosa ATCC 27853; + 25 μM MBX2319): 8 µg/mL
O=C(O)c1cn(C2CC2)c2cc(N3CCNCC3)c(F)cc2c1=O [Ciprofloxacin] | 0.031 | 32 | 128 | 0.008 | 0.031 | 0.037 | 0.005 | 0.022 | 0.088 | 0.25 | 0.29 | 0.031 | 0.031 | 0.008 | 0.044 | 0.031 | 0.149 | 0.21 | MIC (Escherichia coli 331; Escherichia coli, no EPI, read-out: MIC (μg/ml) ± EPI: None): 128 µg/mL
